Data published in the supplement of paper PMC10307832.

Key:
Assay in all cases: relative viability (nuclei count vs DMSO), 5 days (fraction); higher = more cells survive
[1] = compound: Cc1ccc(C(=O)N(CCCN)[C@@H](c2nc3cc(Cl)ccc3c(=O)n2Cc2ccccc2)C(C)C)cc1 [Ispinesib] + O=C(CCCCCCC(=O)Nc1ccccc1)NO [Vorinostat] (partner 1 µM)
How it was run: (§1)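 Nuclei were stained with Hoechst during a one-step fixation (final 0.05% Triton X-100, 1% formaldehyde, 1 ug/ml Hoechst) carried out 5 days after dosing, then counted on 4× images. The cells, lung cancer lines in 1536-well plates, had been dosed by pin tool the day after seeding with one drug alone or a fixed anchor-drug dose plus five library-drug doses (not always all listed) in √10 steps. Relative viability is the nuclei count in treated wells divided by that in vehicle wells, and each value is the median of duplicate plates.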

[2] = compound: C[C@]1(O)C[C@@H](c2nc(-c3ccc4ccc(-c5ccccc5)nc4c3)c3c(N)nccn32)C1 [Linsitinib] + Cc1nc(NC(=O)N2CCC[C@H]2C(N)=O)sc1-c1ccnc(C(C)(C)C(F)(F)F)c1 [Alpelisib] (partner 2 µM)
How it was run: as §1

[3] = compound: C[C@]1(O)C[C@@H](c2nc(-c3ccc4ccc(-c5ccccc5)nc4c3)c3c(N)nccn32)C1 [Linsitinib] + CC(=O)c1c(C)c2cnc(Nc3ccc(N4CCNCC4)cn3)nc2n(C2CCCC2)c1=O [Palbociclib] (partner 0.5 µM)
How it was run: as §1

[4] = compound: Cc1ccc(C(=O)N(CCCN)[C@@H](c2nc3cc(Cl)ccc3c(=O)n2Cc2ccccc2)C(C)C)cc1 [Ispinesib] + Nc1nc2[nH]cc(CCc3ccc(C(=O)N[C@@H](CCC(=O)O)C(=O)O)cc3)c2c(=O)[nH]1 [Pemetrexed] (partner 0.2 µM)
How it was run: as §1

Row | Cell Line | relative viability ([1]; first compound 0.001 µM) | relative viability ([1]; first compound 0.003162 µM) | relative viability ([1]; first compound 0.01 µM) | relative viability ([1]; first compound 0.03162 µM) | relative viability ([1]; first compound 0.1 µM) | relative viability ([2]; first compound 0.01 µM) | relative viability ([2]; first compound 0.03162 µM) | relative viability ([2]; first compound 0.1 µM) | relative viability ([2]; first compound 0.3162 µM) | relative viability ([2]; first compound 1 µM) | relative viability ([3]; first compound 0.01 µM) | relative viability ([3]; first compound 0.03162 µM) | relative viability ([3]; first compound 0.1 µM) | relative viability ([3]; first compound 0.3162 µM) | relative viability ([3]; first compound 1 µM) | relative viability ([4]; first compound 0.001 µM) | relative viability ([4]; first compound 0.003162 µM) | relative viability ([4]; first compound 0.01 µM) | relative viability ([4]; first compound 0.03162 µM) | relative viability ([4]; first compound 0.1 µM)
1 | EMC-BAC-2 | 0.539 | 0.745 | 0.419 | 0.147 | 0.365 | 0.7 | 0.689 | 0.748 | 0.613 | 0.667 | 0.512 | 0.509 | 0.493 | 0.478 | 0.425 | 0.455 | 0.418 | 0.405 | 0.352 | 0.327
2 | NCI-H2087 | 0.963 | 0.45 | 0.937 | 0.995 | 0.141 | 1.06 | 1.2 | 1.02 | 0.853 | 0.815 | 0.205 | 0.268 | 0.15 | 0.175 | 0.299 | 0.667 | 0.715 | 0.66 | 0.635 | 0.149
3 | NCI-H441 | 0.838 | 0.909 | 0.91 | 0.548 | 0.256 | 0.863 | 0.839 | 0.804 | 0.539 | 0.629 | 0.197 | 0.226 | 0.199 | 0.138 | 0.119 | 0.245 | 0.286 | 0.299 | 0.2 | 0.171
4 | LXF-289 | 0.758 | 0.772 | 0.837 | 0.478 | 0.217 | 0.992 | 0.988 | 1.1 | 0.841 | 1.02 | 0.565 | 0.62 | 0.607 | 0.493 | 0.614 | 0.92 | 0.937 | 0.973 | 0.769 | 0.137
5 | NCI-H661 | 0.869 | 0.804 | 0.849 | 0.302 | 0.19 | 0.593 | 0.539 | 0.46 | 0.667 | 0.449 | 0.41 | 0.433 | 0.381 | 0.379 | 0.412 | 0.933 | 0.969 | 0.92 | 0.596 | 0.212
6 | PC-3 [JPC-3] | 0.776 | 0.977 | 0.794 | 0.498 | 0.435 | 1.03 | 1.05 | 1.03 | 1.02 | 0.924 | 0.548 | 0.544 | 0.558 | 0.471 | 0.493 | 1.29 | 1.39 | 1.02 | 0.674 | 0.384
7 | HCC-366 | 0.353 | 0.512 | 0.351 | 0.216 | 0.0545 | 0.416 | 0.239 | 0.446 | 0.242 | 0.201 | 0.441 | 0.394 | 0.359 | 0.303 | 0.328 | 0.18 | 0.189 | 0.176 | 0.153 | 0.0222
8 | NCI-H1651 | 0.529 | 0.605 | 0.676 | 0.512 | 0.548 | 1.03 | 0.989 | 0.822 | 0.738 | 0.957 | 0.543 | 0.525 | 0.494 | 0.486 | 0.489 | 0.616 | 0.783 | 0.57 | 0.63 | 0.418
9 | NCI-H1355 | 0.673 | 0.675 | 0.758 | 0.458 | 0.286 | 0.78 | 0.718 | 0.675 | 0.632 | 0.549 | 0.384 | 0.345 | 0.309 | 0.308 | 0.269 | 1.13 | 1.09 | 1.16 | 0.809 | 0.259
10 | LC-2-ad | 0.718 | 0.697 | 0.765 | 0.321 | 0.19 | 0.84 | 0.73 | 0.822 | 0.633 | 0.733 | 0.412 | 0.392 | 0.483 | 0.433 | 0.423 | 0.288 | 0.259 | 0.262 | 0.23 | 0.149
11 | NCI-H1944 | 0.671 | 0.496 | 0.575 | 0.345 | 0.152 | 0.753 | 0.962 | 0.865 | 0.918 | 0.801 | 0.398 | 0.418 | 0.286 | 0.303 | 0.296 | 0.682 | 0.61 | 0.588 | 0.389 | 0.218
12 | HCC-827 | 0.827 | 0.999 | 0.861 | 0.649 | 0.696 | 0.995 | 1.02 | 0.967 |  | 0.915 | 0.408 | 0.572 | 0.468 |  | 0.529 | 0.25 | 0.259 | 0.274 | 0.248 | 0.235
